Data on one compound can be found in US20230173008A1, “Composition for preventing hair loss or promoting hair growth comprising extract of above-ground part of carrots” (DAEBONG LS, LTD, priority 2020, published 2023).

Read-outs that look alike come from different tables or passages of the source.

The experiment relates to human dermal papilla cells. The experiment can be described thus: cells. Conditions: Human dermal papilla cell, read-out: viability of human dermal papilla cells.

Experimental: Human follicle dermal papilla cells were purchased from PromoCell Co., and a human follicle dermal papilla cell growth medium containing fetal calf serum, bovine pituitary extract, basic fibroblast growth factor and insulin was used and cultured at 37° C. and 5% CO2 incubator.
When the cultured human dermal papilla cells were dispensed in a 48 well plate at 1 × 10^4 cell/mL, and when the amount reached 80% or more, the extract of Example was treated at the concentrations shown in Table 2 below. The positive control group was treated with minoxidil at concentrations of 10 and 50 µM. After culturing the cells for 24, 48, and 72 hours, 200 µL of a 0.5 mg/mL solution of MTT diluted in the medium were added and cultured at 37° C. for 4 hours. After removing the solution, adding 200 µL of DMSO, and transferring 100 µL to a 96 well plate, absorbance was measured at 585 nm using a microplate reader. The average absorbance value for each sample group was obtained, and the cell viability was evaluated by comparing the average absorbance value with the absorbance value of the control group.

The viability is a read-out of living cells in per cent, often relative to untreated cells. Regarding `Nc1cc(N2CCCCC2)nc(N)[n+]1[O-]` [Positive control group, minoxidil], the viability at 10 µM reads like this: (24 h) 104%; (48 h) 107%; (72 h) 115%. For the same compound, the viability at 50 µM reads like this: (24 h) 107%; (48 h) 116%; (72 h) 125%.
